Source: patent US12637465B2, “Pharmaceutically acceptable salts of sepiapterin” (PTC Therapeutics MP, Inc., priority 2018, dated 2026)

Experiments:
Type in all cases: physicochemical
[1] = Solid form stability study of salts and/or co-crystals at 25° C./60% RH and 40° C./75% RH; conditions: for Underwent a form change during the stability testing: 1 and 2 weeks, 25° C./60% RH and 40° C./75% RH
Method: The stability of the prepared salts and/or co-crystals was analyzed after 1 and 2 weeks at 25° C. and 60% relative humidity and 40° C. and 75% relative humidity. […] None of the phosphate, tartrate, or nicotinate salts and/or co-crystals underwent a form change during the stability testing, and each of them retained greater than 97% purity over the two weeks of the study. In fact, both the tartrate and nicotinate both retained greater than 99% purity.

[2] = Kinetic solubility in water and Medisca Oral Mix (HPLC solubility, purity and pH of supernatant); conditions: RT; for Purity (area %) of supernatant: for reference only; for Solubility: calculated using freebase, target conc. 7 mg/mL
Method: (§1) The kinetic solubility was evaluated for nicotinate, phosphate, L-tartrate, and fumarate salts and/or co-crystals of sepiapterin in water and […] Oral Mix. X-ray powder diffraction (XRPD) was performed for the residual solids to identify form change/disproportionation. Solids were suspended into the media with target conc. of 7 mg/mL (calculated by freebase).

[3] = Form change/disproportionation of residual solids by XRPD after suspension in water or Medisca Oral Mix; conditions: for Form change (residual solids, XRPD): RT; for Form of the residual solids in Medisca Oral Mix / Form of the residual solids in water: after 1 hour
Method: as §1, with “freebase). […] Oral Mix after 1 hour. […] Oral Mix.” for “freebase).”

[4] = Medisca Oral Mix, 1 hr, listed as L-tartrate salt and/or co-crystal
[5] = Medisca Oral Mix, 4 hr, listed as L-tartrate salt and/or co-crystal
[6] = Medisca Oral Mix, 24 hr, listed as L-tartrate salt and/or co-crystal
[7] = Water, 1 hr, listed as L-tartrate salt and/or co-crystal
[8] = Water, 4 hr, listed as L-tartrate salt and/or co-crystal
[9] = Water, 24 hr, listed as L-tartrate salt and/or co-crystal
[10] = Medisca Oral Mix, 1 hr, listed as nicotinate salt and/or co-crystal
[11] = Medisca Oral Mix, 4 hr, listed as nicotinate salt and/or co-crystal
[12] = Medisca Oral Mix, 24 hr, listed as nicotinate salt and/or co-crystal
[13] = Water, 1 hr, listed as nicotinate salt and/or co-crystal
[14] = Water, 4 hr, listed as nicotinate salt and/or co-crystal
[15] = Water, 24 hr, listed as nicotinate salt and/or co-crystal
[16] = Medisca Oral Mix, 1 hr, listed as phosphate salt and/or co-crystal
[17] = Medisca Oral Mix, 4 hr, listed as phosphate salt and/or co-crystal
[18] = Medisca Oral Mix, 24 hr, listed as phosphate salt and/or co-crystal
[19] = Water, 1 hr, listed as phosphate salt and/or co-crystal
[20] = Water, 4 hr, listed as phosphate salt and/or co-crystal
[21] = Water, 24 hr, listed as phosphate salt and/or co-crystal

Compound: C[C@H](O)C(=O)C1=Nc2c(nc(N)[nH]c2=O)NC1 [L-Tartrate, sepiapterin]
- Stability compared with the other salts and/or co-crystals tested [1]: noticeably more stable than the others
- Underwent a form change during the stability testing [1]: None
- Form change ([1]; 1 week, 25° C./60% RH): No
- Purity (Area %) ([1]; 1 week, 25° C./60% RH): 98.61 Area %
- Purity vs. initial (%) ([1]; 1 week, 25° C./60% RH): 99.9%
- Form change ([1]; 1 week, 40° C./75% RH): No
- Purity (Area %) ([1]; 1 week, 40° C./75% RH): 99.06 Area %
- Purity vs. initial (%) ([1]; 1 week, 40° C./75% RH): 99.3%
- Form change ([1]; 2 weeks, 25° C./60% RH): No
- Purity (Area %) ([1]; 2 weeks, 25° C./60% RH): 99.39 Area %
- Purity vs. initial (%) ([1]; 2 weeks, 25° C./60% RH): 99.6%
- Form change ([1]; 2 weeks, 40° C./75% RH): No
- Purity (Area %) ([1]; 2 weeks, 40° C./75% RH): 99.00 Area %
- Purity vs. initial (%) ([1]; 2 weeks, 40° C./75% RH): 99.3%
- Purity (Area %) ([1]; Initial): 99.75 Area %
- Observation ([2]; Medisca Oral Mix, 1 hr): Turbid
- Purity (area %) of supernatant [2, 4]: 99.68 area %
- pH [2, 4]: 3.3
- Observation ([2]; Medisca Oral Mix, 4 hr): Turbid
- Solubility [2, 5]: 2500 µg/mL
- Purity (area %) of supernatant [2, 5]: 99.54 area %
- pH [2, 5]: 3.3
- Observation ([2]; Medisca Oral Mix, 24 hr): Turbid
- Solubility [2, 6]: 3200 µg/mL
- Purity (area %) of supernatant [2, 6]: 95.67 area %
- pH [2, 6]: 3.3
- Observation ([2]; Water, 1 hr): Turbid
- Purity (area %) of supernatant [2, 7]: 99.34 area %
- pH [2, 7]: 2.5
- Observation ([2]; Water, 4 hr): Turbid
- Purity (area %) of supernatant [2, 8]: 99.07 area %
- pH [2, 8]: 2.5
- Observation ([2]; Water, 24 hr): Turbid
- Purity (area %) of supernatant [2, 9]: 95.61 area %
- pH [2, 9]: 2.5
- Form change (residual solids, XRPD) [3, 4]: Yes
- Form change (residual solids, XRPD) [3, 5]: Yes
- Form change (residual solids, XRPD) [3, 6]: Yes
- Form of the residual solids in Medisca Oral Mix ([3]; Medisca Oral Mix): converted to freebase
- Form change (residual solids, XRPD) [3, 7]: Yes
- Form change (residual solids, XRPD) [3, 8]: Yes
- Form change (residual solids, XRPD) [3, 9]: Yes
- Form of the residual solids in water [3]: converted to freebase

Compound: C[C@H](O)C(=O)C1=Nc2c(nc(N)[nH]c2=O)NC1 [Nicotinate, sepiapterin]
- Stability compared with the other salts and/or co-crystals tested [1]: noticeably more stable than the others
- Underwent a form change during the stability testing [1]: None
- Form change ([1]; 1 week, 25° C./60% RH): No
- Purity (Area %) ([1]; 1 week, 25° C./60% RH): 97.43 Area %
- Purity vs. initial (%) ([1]; 1 week, 25° C./60% RH): 100.3%
- Form change ([1]; 1 week, 40° C./75% RH): No
- Purity (Area %) ([1]; 1 week, 40° C./75% RH): 97.30 Area %
- Purity vs. initial (%) ([1]; 1 week, 40° C./75% RH): 100.2%
- Form change ([1]; 2 weeks, 25° C./60% RH): No
- Purity (Area %) ([1]; 2 weeks, 25° C./60% RH): 97.45 Area %
- Purity vs. initial (%) ([1]; 2 weeks, 25° C./60% RH): 100.3%
- Form change ([1]; 2 weeks, 40° C./75% RH): No
- Purity (Area %) ([1]; 2 weeks, 40° C./75% RH): 97.41 Area %
- Purity vs. initial (%) ([1]; 2 weeks, 40° C./75% RH): 100.3%
- Purity (Area %) ([1]; Initial): 97.16 Area %
- Observation ([2]; Medisca Oral Mix, 1 hr): Turbid
- Purity (area %) of supernatant [2, 10]: 99.76 area %
- pH [2, 10]: 3.1
- Observation ([2]; Medisca Oral Mix, 4 hr): Turbid
- Purity (area %) of supernatant [2, 11]: 99.60 area %
- pH [2, 11]: 3.1
- Observation ([2]; Medisca Oral Mix, 24 hr): Turbid
- Purity (area %) of supernatant [2, 12]: 97.00 area %
- pH [2, 12]: 3.1
- Observation ([2]; Water, 1 hr): Turbid
- Purity (area %) of supernatant [2, 13]: 98.97 area %
- pH [2, 13]: 2.1
- Observation ([2]; Water, 4 hr): Turbid
- Purity (area %) of supernatant [2, 14]: 99.04 area %
- pH [2, 14]: 2.1
- Observation ([2]; Water, 24 hr): Turbid
- Purity (area %) of supernatant [2, 15]: 96.54 area %
- pH [2, 15]: 2.1
- Form change (residual solids, XRPD) [3, 10]: Yes
- Form change (residual solids, XRPD) [3, 11]: Yes
- Form change (residual solids, XRPD) [3, 12]: Yes
- Form of the residual solids in Medisca Oral Mix ([3]; Medisca Oral Mix): converted to freebase
- Form change (residual solids, XRPD) [3, 13]: Yes
- Form change (residual solids, XRPD) [3, 14]: Yes
- Form change (residual solids, XRPD) [3, 15]: Yes
- Form of the residual solids in water [3]: converted to freebase

Compound: C[C@H](O)C(=O)C1=Nc2c(nc(N)[nH]c2=O)NC1 [Phosphate, sepiapterin]
- Stability compared with the other salts and/or co-crystals tested [1]: noticeably more stable than the others
- Underwent a form change during the stability testing [1]: None
- Form change ([1]; 1 week, 25° C./60% RH): No
- Purity (Area %) ([1]; 1 week, 25° C./60% RH): 95.35 Area %
- Purity vs. initial (%) ([1]; 1 week, 25° C./60% RH): 98.6%
- Form change ([1]; 1 week, 40° C./75% RH): No
- Purity (Area %) ([1]; 1 week, 40° C./75% RH): 95.91 Area %
- Purity vs. initial (%) ([1]; 1 week, 40° C./75% RH): 99.1%
- Form change ([1]; 2 weeks, 25° C./60% RH): No
- Purity (Area %) ([1]; 2 weeks, 25° C./60% RH): 95.87 Area %
- Purity vs. initial (%) ([1]; 2 weeks, 25° C./60% RH): 99.1%
- Form change ([1]; 2 weeks, 40° C./75% RH): No
- Purity (Area %) ([1]; 2 weeks, 40° C./75% RH): 94.50 Area %
- Purity vs. initial (%) ([1]; 2 weeks, 40° C./75% RH): 97.7%
- Purity (Area %) ([1]; Initial): 96.75 Area %
- Observation ([2]; Medisca Oral Mix, 1 hr): Turbid
- Solubility [2, 16]: 2500 µg/mL
- Purity (area %) of supernatant [2, 16]: 99.23 area %
- pH [2, 16]: 3.1
- Observation ([2]; Medisca Oral Mix, 4 hr): Turbid
- Solubility [2, 17]: 3200 µg/mL
- Purity (area %) of supernatant [2, 17]: 98.95 area %
- pH [2, 17]: 3.1
- Observation ([2]; Medisca Oral Mix, 24 hr): Turbid
- Purity (area %) of supernatant [2, 18]: 87.63 area %
- pH [2, 18]: 3.1
- Observation ([2]; Water, 1 hr): Turbid
- Purity (area %) of supernatant [2, 19]: 89.92 area %
- pH [2, 19]: 2.1
- Observation ([2]; Water, 4 hr): Turbid
- Purity (area %) of supernatant [2, 20]: 89.52 area %
- pH [2, 20]: 2.1
- Observation ([2]; Water, 24 hr): Turbid
- Purity (area %) of supernatant [2, 21]: 82.64 area %
- pH [2, 21]: 2.1
- Form change (residual solids, XRPD) [3, 16]: Yes**
- Form change (residual solids, XRPD) [3, 17]: Yes**
- Form change (residual solids, XRPD) [3, 18]: Yes**
- Form of the residual solids in Medisca Oral Mix ([3]; Medisca Oral Mix): converted to freebase
- Form change (residual solids, XRPD) [3, 19]: Yes
- Form change (residual solids, XRPD) [3, 20]: Yes
- Form change (residual solids, XRPD) [3, 21]: Yes
- Form of the residual solids in water [3]: converted to freebase
